Where “and” joins values, the source holds several entries; their conditions need not be identical. Equal values may be shown once.
Settings: Liquid

CCCCCCCCCC(=O)OC [methyl decanoate]
Settings	vapor or sublimation pressure
273.35 K	0.0004731 kPa
273.84 K	0.0004984 kPa
274.32 K	0.0005246 kPa
274.8 K	0.0005538 kPa
275.29 K	0.0005879 kPa
275.77 K	0.0006152 kPa
276.26 K	0.0006487 kPa
276.74 K	0.0006849 kPa
277.23 K	0.0007225 kPa
277.71 K	0.0007597 kPa
278.2 K	0.0008032 kPa
278.69 K	0.0008442 kPa
279.18 K	0.0008873 kPa
279.66 K	0.0009341 kPa
280.15 K	0.0009819 kPa
280.64 K	0.001035 kPa
281.12 K	0.001093 kPa
281.47 K	0.001128 kPa
282.96 K	0.001314 kPa
283.48 K	0.001386 kPa
284.46 K	0.001532 kPa
284.96 K	0.001613 kPa
285.43 K	0.001692 kPa
285.64 K	0.00173 kPa
285.74 K	0.001743 kPa
285.95 K	0.001776 kPa
286.44 K	0.001869 kPa
286.95 K	0.001967 kPa
287.44 K	0.002063 kPa
287.94 K	0.002166 kPa and 0.002174 kPa
288.93 K	0.002392 kPa
289.31 K	0.002487 kPa
289.43 K	0.002508 kPa
290.42 K	0.002759 kPa
290.53 K	0.002791 kPa
290.92 K	0.002894 kPa
291.81 K	0.003154 kPa
291.92 K	0.003182 kPa
292.42 K	0.003341 kPa
292.9 K	0.003501 kPa
293.41 K	0.00367 kPa
293.91 K	0.003845 kPa
294.3 K	0.00399 kPa
294.9 K	0.004224 kPa
295.4 K	0.004415 kPa
295.51 K	0.004442 kPa
295.9 K	0.004625 kPa
296.39 K	0.004836 kPa
296.77 K	0.004989 kPa
297.39 K	0.005295 kPa
297.89 K	0.005534 kPa
297.98 K	0.005566 kPa
298.88 K	0.006057 kPa
299.38 K	0.006339 kPa
300.37 K	0.00692 kPa
300.46 K	0.006953 kPa
300.87 K	0.007243 kPa
301.87 K	0.007893 kPa
302.37 K	0.008238 kPa
302.84 K	0.008517 kPa
302.94 K	0.008627 kPa
303.36 K	0.008981 kPa
303.76 K	0.009236 kPa
303.81 K	0.0093 kPa
303.82 K	0.009286 kPa and 0.009287 kPa
303.86 K	0.00937 kPa
304.85 K	0.0102 kPa and 0.01021 kPa
305.24 K	0.01047 kPa
305.26 K	0.01052 kPa
305.29 K	0.01057 kPa
305.35 K	0.01065 kPa
305.42 K	0.01069 kPa
307.68 K	0.01286 kPa
308.6 K	0.01393 kPa
308.64 K	0.014 kPa
310.04 K	0.0157 kPa
310.06 K	0.01581 kPa
310.09 K	0.0158 kPa
310.1 K	0.01574 kPa
310.14 K	0.01575 kPa
312.52 K	0.01912 kPa
313.44 K	0.02065 kPa
313.47 K	0.0207 kPa
314.89 K	0.02316 kPa
314.94 K	0.0232 kPa
317.35 K	0.02798 kPa and 0.02794 kPa
317.42 K	0.02817 kPa
318.24 K	0.0299 kPa
318.28 K	0.03012 kPa
319.72 K	0.0337 kPa
319.78 K	0.03379 kPa and 0.03376 kPa
322.16 K	0.04037 kPa
322.2 K	0.0406 kPa
322.27 K	0.04082 kPa
323.11 K	0.04344 kPa
324.57 K	0.04813 kPa
324.61 K	0.04845 kPa
324.63 K	0.04869 kPa
327.04 K	0.05787 kPa
327.09 K	0.05806 kPa
327.93 K	0.06147 kPa
327.97 K	0.06194 kPa
329.38 K	0.06819 kPa
329.43 K	0.06843 kPa
329.46 K	0.06916 kPa
329.51 K	0.0691 kPa
330.86 K	0.07578 kPa
331.89 K	0.08137 kPa
331.9 K	0.08129 kPa
331.96 K	0.08174 kPa
332.78 K	0.08635 kPa
334.24 K	0.09568 kPa
334.28 K	0.09573 kPa
334.33 K	0.09658 kPa and 0.09631 kPa
334.38 K	0.09672 kPa
335.68 K	0.1054 kPa
336.74 K	0.1133 kPa
336.79 K	0.1135 kPa
337.62 K	0.1198 kPa
339.09 K	0.1322 kPa
339.17 K	0.1333 kPa
339.24 K	0.1341 kPa
340.51 K	0.1449 kPa
340.55 K	0.1456 kPa
341.5 K	0.1546 kPa
341.58 K	0.1555 kPa
341.63 K	0.1564 kPa
341.66 K	0.157 kPa
348.04 K	0.2325 kPa
352.92 K	0.3135 kPa
357.8 K	0.4166 kPa
362.67 K	0.5493 kPa
367.55 K	0.7207 kPa
372.43 K	0.9271 kPa
374.86 K	1.054 kPa
377.3 K	1.195 kPa

Source: the NIST ThermoML archive (doi:10.1016/j.jct.2019.01.007)
